Measurements reported in ChEMBL document CHEMBL5579823, “Discovery of 7-alkoxybenzofurans as PDE4 inhibitors with hepatoprotective activity in D-GalN/LPS-induced hepatic sepsis” (Eur J Med Chem, 2024).
Activity calls are given as the source filed them. No cut-off for these calls is given here.

How the values were obtained:
Mus musculus [1] = assay: Hepatoprotective activity in GalN/LPS-induced C57BL/6J mouse hepatic sepsis model at 3 mg/kg, IG administered once daily for 3 days followed by GalN/LPS addition 1 hr post-last dose measured after 4 hrs by hematoxylin and eosin staining based light microscopy; format: functional, organism-based; settings: time 3.0 day
[2] = biological target: T1, 3',5'-cyclic-AMP phosphodiesterase 4B (Homo sapiens, UniProt Q07343); assay: Inhibition of PDE4B1 (unknown origin)
[3] = biological target: T2, 3',5'-cyclic-AMP phosphodiesterase 4D (Homo sapiens, UniProt Q08499); assay: Inhibition of PDE4D7 (unknown origin)
[4] = biological target: High affinity 3',5'-cyclic-AMP phosphodiesterase 7A (Homo sapiens) (UniProt Q13946); assay: Inhibition of PDE7A (unknown origin) at 20 uM using FAM-cyclic-3',5'-AMP as substrate measured after 1 hr by fluorescence polarization assay relative to control
[5] = Cmax in Sprague-Dawley rat at 5 mg/kg, iv by LC-MS/MS analysis; format: ADME, organism-based; settings: in vivo
[6] = biological target: cGMP-inhibited 3',5'-cyclic phosphodiesterase 3B (Homo sapiens) (UniProt Q13370); assay: Inhibition of recombinant human N-terminal GST-tagged PDE3B (592 to 1112 residues) expressed in Sf9 insect cells at 20 uM using FAM-cyclic-3',5'-AMP as substrate measured after 1 hr by fluorescence polarization assay relative to control
Mus musculus [7] = assay: Hepatoprotective activity in GalN/LPS-induced C57BL/6J mouse hepatic sepsis model assessed as reduction in ALT level at 1 to 3 mg/kg, IG administered once daily for 3 days followed by GalN/LPS addition 1 hr post-last dose measured after 4 hrs; format: functional, organism-based; settings: dose 1-3 mg/kg, time 3.0 day
[8] = Clearance in Sprague-Dawley rat at 5 mg/kg, po by LC-MS/MS analysis; format: ADME, organism-based; settings: in vivo
[9] = AUC (0 to infinity) in Sprague-Dawley rat at 5 mg/kg, iv by LC-MS/MS analysis; format: ADME, organism-based; settings: in vivo
[10] = Half-life in Sprague-Dawley rat at 5 mg/kg, po by LC-MS/MS analysis; format: ADME, organism-based; settings: in vivo
[11] = Volume of distribution in Sprague-Dawley rat at 5 mg/kg, iv by LC-MS/MS analysis; format: ADME, organism-based; settings: in vivo
[12] = MRT(0 to t) in Sprague-Dawley rat at 5 mg/kg, po by LC-MS/MS analysis; format: ADME, organism-based; settings: in vivo
[13] = biological target: T1, 3',5'-cyclic-AMP phosphodiesterase 4B; assay: Inhibition of recombinant human N-terminal GST-tagged PDE4B1 (1 to 736 residues) expressed in Sf9 insect cells using FAM-cyclic-3',5'-AMP as substrate measured after 1 hr by fluorescence polarization assay
[14] = Cmax in Sprague-Dawley rat at 5 mg/kg, po by LC-MS/MS analysis; format: ADME, organism-based; settings: in vivo
[15] = Half-life in Sprague-Dawley rat at 5 mg/kg, iv by LC-MS/MS analysis; format: ADME, organism-based; settings: in vivo
Mus musculus [16] = assay: (§1) Hepatoprotective activity in GalN/LPS-induced C57BL/6J mouse hepatic sepsis model assessed as reduction in necrotic morphology at 1 to 3 mg/kg, IG administered once daily for 3 days followed by GalN/LPS addition 1 hr post-last dose measured after 4 hrs by hematoxylin and eosin staining based light microscopy; format: functional, organism-based; settings: dose 1-3 mg/kg, time 3.0 day
[17] = biological target: High affinity cAMP-specific 3',5'-cyclic phosphodiesterase 8A (Homo sapiens) (UniProt O60658); assay: Inhibition of human N-terminal GST-tagged full-length PDE8A1 expressed in baculovirus infected Sf9 insect cells at 10 uM using FAM-cyclic-3',5'-AMP as substrate measured after 1 hr by fluorescence polarization assay relative to control
Mus musculus [18] = assay: as §1, with “aggregation of inflammatory cells” for “necrotic morphology”; format: functional, organism-based; settings: dose 1-3 mg/kg, time 3.0 day
[19] = biological target: High affinity cAMP-specific 3',5'-cyclic phosphodiesterase 8A (Homo sapiens) (UniProt O60658); assay: Inhibition of human N-terminal GST-tagged full-length PDE8A1 expressed in baculovirus infected Sf9 insect cells at 20 uM using FAM-cyclic-3',5'-AMP as substrate measured after 1 hr by fluorescence polarization assay relative to control
[20] = AUC(0 to t) in Sprague-Dawley rat at 5 mg/kg, po by LC-MS/MS analysis; format: ADME, organism-based; settings: in vivo
[21] = biological target: High affinity 3',5'-cyclic-AMP phosphodiesterase 7A (Homo sapiens) (UniProt Q13946); assay: Inhibition of PDE7A (unknown origin) at 10 uM using FAM-cyclic-3',5'-AMP as substrate measured after 1 hr by fluorescence polarization assay relative to control
[22] = AUC(0 to infinity) in Sprague-Dawley rat at 5 mg/kg, po by LC-MS/MS analysis; format: ADME, organism-based; settings: in vivo
[23] = Clearance in Sprague-Dawley rat at 5 mg/kg, iv by LC-MS/MS analysis; format: ADME, organism-based; settings: in vivo
[24] = biological target: High affinity cGMP-specific 3',5'-cyclic phosphodiesterase 9A (Homo sapiens) (UniProt O76083); assay: Inhibition of human N-terminal GST-tagged full-length PDE9A2 expressed in baculovirus infected Sf9 insect cells at 10 uM using FAM-cyclic-3',5'-AMP as substrate measured after 1 hr by fluorescence polarization assay relative to control
[25] = Volume of distribution in Sprague-Dawley rat at 5 mg/kg, po by LC-MS/MS analysis; format: ADME, organism-based; settings: in vivo
[26] = biological target: cGMP-specific 3',5'-cyclic phosphodiesterase (Homo sapiens) (UniProt O76074); assay: Inhibition of PDE5A (unknown origin) at 20 uM using FAM-cyclic-3',5'-AMP as substrate measured after 1 hr by fluorescence polarization assay relative to control
Mus musculus [27] = assay: Hepatoprotective activity in GalN/LPS-induced C57BL/6J mouse hepatic sepsis model assessed as reduction in AST level at 1 to 3 mg/kg, IG administered once daily for 3 days followed by GalN/LPS addition 1 hr post-last dose measured after 4 hrs; format: functional, organism-based; settings: dose 1-3 mg/kg, time 3.0 day
[28] = biological target: High affinity cGMP-specific 3',5'-cyclic phosphodiesterase 9A (Homo sapiens) (UniProt O76083); assay: Inhibition of human N-terminal GST-tagged full-length PDE9A2 expressed in baculovirus infected Sf9 insect cells at 20 uM using FAM-cyclic-3',5'-AMP as substrate measured after 1 hr by fluorescence polarization assay relative to control
[29] = biological target: cGMP-specific 3',5'-cyclic phosphodiesterase (Homo sapiens) (UniProt O76074); assay: Inhibition of PDE5A (unknown origin) at 10 uM using FAM-cyclic-3',5'-AMP as substrate measured after 1 hr by fluorescence polarization assay relative to control
[30] = MRT(0 to t) in Sprague-Dawley rat at 5 mg/kg, iv by LC-MS/MS analysis; format: ADME, organism-based; settings: in vivo
[31] = Oral bioavailability in Sprague-Dawley rat at 5 mg/kg by LC-MS/MS analysis; format: ADME, organism-based; settings: in vivo
Mus musculus [32] = assay: as §1, with “hepatomegaly” for “necrotic morphology”; format: functional, organism-based; settings: dose 1-3 mg/kg, time 3.0 day
[33] = AUC (0 to t) in Sprague-Dawley rat at 5 mg/kg, iv by LC-MS/MS analysis; format: ADME, organism-based; settings: in vivo
[34] = Tmax in Sprague-Dawley rat at 5 mg/kg, po by LC-MS/MS analysis; format: ADME, organism-based; settings: in vivo
[35] = biological target: cGMP-inhibited 3',5'-cyclic phosphodiesterase 3B (Homo sapiens) (UniProt Q13370); assay: Inhibition of recombinant human N-terminal GST-tagged PDE3B (592 to 1112 residues) expressed in Sf9 insect cells at 10 uM using FAM-cyclic-3',5'-AMP as substrate measured after 1 hr by fluorescence polarization assay relative to control
[36] = Oral bioavailability in mouse at 5 mg/kg by LC-MS/MS analysis; format: ADME, organism-based; settings: in vivo
[37] = biological target: T2, 3',5'-cyclic-AMP phosphodiesterase 4D; assay: Inhibition of human N-terminal GST-tagged PDE4D7 (2 to 748 residues) expressed in baculovirus infected Sf9 insect cells using FAM-cyclic-3',5'-AMP as substrate measured after 1 hr by fluorescence polarization assay

T1 sequence (Q07343 whole entry): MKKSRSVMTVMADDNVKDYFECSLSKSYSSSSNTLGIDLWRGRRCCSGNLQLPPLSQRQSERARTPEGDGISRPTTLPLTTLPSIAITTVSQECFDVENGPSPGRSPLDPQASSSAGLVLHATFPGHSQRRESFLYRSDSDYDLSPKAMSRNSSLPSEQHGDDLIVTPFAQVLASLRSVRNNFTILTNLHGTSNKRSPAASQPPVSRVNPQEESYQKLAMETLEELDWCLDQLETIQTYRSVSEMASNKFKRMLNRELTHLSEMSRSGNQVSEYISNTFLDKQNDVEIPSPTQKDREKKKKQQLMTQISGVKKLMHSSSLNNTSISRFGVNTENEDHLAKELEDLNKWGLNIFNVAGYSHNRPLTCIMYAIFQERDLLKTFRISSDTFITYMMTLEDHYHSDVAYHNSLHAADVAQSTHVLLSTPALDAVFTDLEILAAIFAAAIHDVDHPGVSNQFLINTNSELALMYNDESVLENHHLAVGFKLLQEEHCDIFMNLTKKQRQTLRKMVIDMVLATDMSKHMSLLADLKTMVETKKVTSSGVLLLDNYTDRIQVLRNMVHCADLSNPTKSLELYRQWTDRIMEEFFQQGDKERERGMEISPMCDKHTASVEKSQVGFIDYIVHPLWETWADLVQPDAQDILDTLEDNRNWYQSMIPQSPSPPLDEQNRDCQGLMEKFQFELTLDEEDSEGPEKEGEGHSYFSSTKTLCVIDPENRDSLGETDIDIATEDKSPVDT
Sequence of cGMP-inhibited 3',5'-cyclic phosphodiesterase 3B (Homo sapiens) (Q13370 whole entry, looked up, the tested form may be a part): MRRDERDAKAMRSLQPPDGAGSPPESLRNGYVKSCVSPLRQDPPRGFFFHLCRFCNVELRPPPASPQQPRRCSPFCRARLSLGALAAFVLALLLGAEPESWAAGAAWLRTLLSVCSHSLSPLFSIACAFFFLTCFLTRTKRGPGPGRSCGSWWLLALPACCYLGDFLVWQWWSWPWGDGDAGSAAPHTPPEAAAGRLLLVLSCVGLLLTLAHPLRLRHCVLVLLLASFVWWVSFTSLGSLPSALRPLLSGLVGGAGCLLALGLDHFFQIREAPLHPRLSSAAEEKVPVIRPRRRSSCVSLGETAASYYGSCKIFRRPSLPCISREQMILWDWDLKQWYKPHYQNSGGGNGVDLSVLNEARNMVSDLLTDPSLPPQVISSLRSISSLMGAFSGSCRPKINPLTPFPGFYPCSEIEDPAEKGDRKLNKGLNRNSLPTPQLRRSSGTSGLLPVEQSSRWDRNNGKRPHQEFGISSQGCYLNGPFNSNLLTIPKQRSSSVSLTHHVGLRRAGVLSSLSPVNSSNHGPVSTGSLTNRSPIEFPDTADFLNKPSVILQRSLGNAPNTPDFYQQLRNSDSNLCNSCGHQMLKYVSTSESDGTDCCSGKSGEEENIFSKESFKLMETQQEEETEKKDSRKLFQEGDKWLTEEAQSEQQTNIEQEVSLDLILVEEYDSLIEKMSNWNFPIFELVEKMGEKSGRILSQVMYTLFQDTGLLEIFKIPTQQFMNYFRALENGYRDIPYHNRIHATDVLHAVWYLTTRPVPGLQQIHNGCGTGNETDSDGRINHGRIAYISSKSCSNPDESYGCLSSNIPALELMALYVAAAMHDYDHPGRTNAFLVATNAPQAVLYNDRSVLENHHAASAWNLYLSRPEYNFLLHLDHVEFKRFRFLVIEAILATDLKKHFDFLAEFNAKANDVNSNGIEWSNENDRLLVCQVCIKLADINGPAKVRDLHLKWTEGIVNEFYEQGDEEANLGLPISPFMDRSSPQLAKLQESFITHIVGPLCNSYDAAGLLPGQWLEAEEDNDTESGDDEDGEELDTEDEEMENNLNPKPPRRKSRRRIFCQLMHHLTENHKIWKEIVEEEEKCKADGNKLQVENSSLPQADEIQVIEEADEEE
Sequence of High affinity cGMP-specific 3',5'-cyclic phosphodiesterase 9A (Homo sapiens) (O76083 whole entry): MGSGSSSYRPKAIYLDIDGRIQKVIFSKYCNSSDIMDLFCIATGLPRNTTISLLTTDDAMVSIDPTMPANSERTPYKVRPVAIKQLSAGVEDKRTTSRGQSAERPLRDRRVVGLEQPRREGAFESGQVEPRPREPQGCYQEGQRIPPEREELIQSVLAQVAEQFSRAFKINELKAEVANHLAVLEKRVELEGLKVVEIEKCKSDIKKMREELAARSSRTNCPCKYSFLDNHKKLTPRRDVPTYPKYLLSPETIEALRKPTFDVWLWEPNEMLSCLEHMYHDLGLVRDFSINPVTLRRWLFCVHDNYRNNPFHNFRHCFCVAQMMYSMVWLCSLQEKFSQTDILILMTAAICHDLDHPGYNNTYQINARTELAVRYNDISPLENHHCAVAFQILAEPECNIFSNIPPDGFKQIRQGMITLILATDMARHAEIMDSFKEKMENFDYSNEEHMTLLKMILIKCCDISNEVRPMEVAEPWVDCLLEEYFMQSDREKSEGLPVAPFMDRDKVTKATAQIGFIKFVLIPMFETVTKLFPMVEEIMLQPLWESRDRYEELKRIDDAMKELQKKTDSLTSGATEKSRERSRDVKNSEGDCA
T2 sequence (Q08499 whole entry): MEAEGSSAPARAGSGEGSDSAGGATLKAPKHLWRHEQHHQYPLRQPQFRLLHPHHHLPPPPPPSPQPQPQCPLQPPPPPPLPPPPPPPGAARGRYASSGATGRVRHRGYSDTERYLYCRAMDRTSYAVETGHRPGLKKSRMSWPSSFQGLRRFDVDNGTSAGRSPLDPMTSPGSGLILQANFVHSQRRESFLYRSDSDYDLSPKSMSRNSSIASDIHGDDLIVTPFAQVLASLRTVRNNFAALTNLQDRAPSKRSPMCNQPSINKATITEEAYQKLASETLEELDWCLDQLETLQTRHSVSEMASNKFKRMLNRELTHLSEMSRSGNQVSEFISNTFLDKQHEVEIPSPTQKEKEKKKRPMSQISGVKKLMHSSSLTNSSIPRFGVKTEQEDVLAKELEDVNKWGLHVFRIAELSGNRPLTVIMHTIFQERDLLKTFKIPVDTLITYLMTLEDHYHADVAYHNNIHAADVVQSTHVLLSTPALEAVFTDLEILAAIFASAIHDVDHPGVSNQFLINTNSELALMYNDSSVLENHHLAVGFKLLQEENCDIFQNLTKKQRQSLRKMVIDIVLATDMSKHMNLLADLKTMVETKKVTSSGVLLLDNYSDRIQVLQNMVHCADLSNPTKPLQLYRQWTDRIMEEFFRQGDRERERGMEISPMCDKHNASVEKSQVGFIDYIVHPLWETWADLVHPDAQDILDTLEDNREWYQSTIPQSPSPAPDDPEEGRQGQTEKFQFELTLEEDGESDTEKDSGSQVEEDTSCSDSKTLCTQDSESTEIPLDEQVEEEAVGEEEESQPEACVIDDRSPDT
Sequence of High affinity 3',5'-cyclic-AMP phosphodiesterase 7A (Homo sapiens) (Q13946 whole entry): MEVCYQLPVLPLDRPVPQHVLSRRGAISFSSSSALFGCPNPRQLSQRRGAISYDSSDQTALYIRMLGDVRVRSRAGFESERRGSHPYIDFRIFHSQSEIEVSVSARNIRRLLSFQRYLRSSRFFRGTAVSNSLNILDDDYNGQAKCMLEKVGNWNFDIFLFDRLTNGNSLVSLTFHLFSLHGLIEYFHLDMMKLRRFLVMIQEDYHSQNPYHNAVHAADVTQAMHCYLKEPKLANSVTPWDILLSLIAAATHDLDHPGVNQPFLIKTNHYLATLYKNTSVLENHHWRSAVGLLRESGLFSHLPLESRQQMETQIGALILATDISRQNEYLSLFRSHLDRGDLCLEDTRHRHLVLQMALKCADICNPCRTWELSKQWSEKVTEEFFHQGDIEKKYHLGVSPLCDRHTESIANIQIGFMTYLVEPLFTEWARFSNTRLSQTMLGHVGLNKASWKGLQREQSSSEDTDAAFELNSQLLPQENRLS
Sequence of High affinity cAMP-specific 3',5'-cyclic phosphodiesterase 8A (Homo sapiens) (O60658 whole entry, looked up): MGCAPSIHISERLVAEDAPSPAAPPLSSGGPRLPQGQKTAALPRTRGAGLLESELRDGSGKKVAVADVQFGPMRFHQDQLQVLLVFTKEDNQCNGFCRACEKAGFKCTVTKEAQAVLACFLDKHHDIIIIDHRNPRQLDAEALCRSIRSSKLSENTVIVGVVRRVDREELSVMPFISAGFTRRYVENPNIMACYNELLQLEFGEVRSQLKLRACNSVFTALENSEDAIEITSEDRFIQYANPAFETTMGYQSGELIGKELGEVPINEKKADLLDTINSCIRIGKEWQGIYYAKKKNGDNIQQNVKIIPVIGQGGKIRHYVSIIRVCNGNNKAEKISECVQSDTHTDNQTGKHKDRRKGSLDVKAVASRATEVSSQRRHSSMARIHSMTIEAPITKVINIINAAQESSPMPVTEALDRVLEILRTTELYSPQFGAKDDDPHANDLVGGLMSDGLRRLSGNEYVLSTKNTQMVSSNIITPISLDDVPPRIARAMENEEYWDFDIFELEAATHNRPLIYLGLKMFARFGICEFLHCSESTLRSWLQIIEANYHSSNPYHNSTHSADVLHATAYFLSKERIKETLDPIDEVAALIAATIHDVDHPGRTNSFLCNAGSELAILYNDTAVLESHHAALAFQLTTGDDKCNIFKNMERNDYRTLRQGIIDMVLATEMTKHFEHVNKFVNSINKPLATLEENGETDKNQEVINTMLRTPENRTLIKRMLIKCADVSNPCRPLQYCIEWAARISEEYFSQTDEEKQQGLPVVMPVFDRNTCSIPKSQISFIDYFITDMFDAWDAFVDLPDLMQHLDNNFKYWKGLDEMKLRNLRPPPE

Which Activity (Mus musculus [1]) does the source give for `COc1ccc(C2CNC(=O)C2)cc1OC1CCCC1` (stereo not drawn) here?
The Activity was “Active”.

For `CCNc1cc(C(=O)C2CCCC2)ccc1OC`, which IC50 [2] is on record?
The IC50 was 110 nM.

What about the IC50 [3] of the same molecule?
The IC50 was 1610 nM.

For `COc1ccc(C(=O)Cn2ccnc2)c2cc(C3CC3)oc12`, which inhibition [4] is on record?
The inhibition was 15%.

And the Cmax [5]?
Its Cmax is 1740 ng/mL.

What about the inhibition [6] of the same molecule?
Its inhibition is 23%.

What about the Activity (Mus musculus [7]) of the same molecule?
The Activity was “Active”.

What about the CL/F [8] of the same molecule?
The CL/F was 22.8 mL/min/kg.

And the AUC [9]?
Its AUC is 5299.87 ng·h/mL.

And the t1/2 [10]?
Its t1/2 is 2 h.

And the Vd [11]?
The Vd was 1.76 L/kg.

What about the MRT last [12] of the same molecule?
Its MRT last is 2.74 h.

And the IC50 [13]?
Its IC50 is 10 nM.

And the Cmax [14]?
The Cmax was 957 ng/mL.

And the t1/2 [15]?
Its t1/2 is 1.29 h.

What about the Activity (Mus musculus [16]) of the same molecule?
The Activity was “Active”.

And the inhibition [17]?
The inhibition was 6%.

And the Activity (Mus musculus [18])?
The Activity was “Active”.

What about the inhibition [19] of the same molecule?
Its inhibition is 14%.

What about the AUC(0-t) [20] of the same molecule?
Its AUC(0-t) is 3440 ng·h/mL.

And the inhibition [21]?
Its inhibition is 8%.

And the AUC [22]?
Its AUC is 3669.79 ng·h/mL.

What about the clearance [23] of the same molecule?
Its clearance is 15.8 mL/min/kg.

What about the inhibition [24] of the same molecule?
Its inhibition is 5%.

What about the Vd [25] of the same molecule?
The Vd was 3.91 L/kg.

And the inhibition [26]?
Its inhibition is 17%.

And the Activity (Mus musculus [27])?
The Activity was “Active”.

What about the inhibition [28] of the same molecule?
The inhibition was 12%.

And the inhibition [29]?
Its inhibition is 9%.

And the MRT last [30]?
Its MRT last is 2.31 h.

What about the bioavailability [31] of the same molecule?
Its bioavailability is 66%.

What about the Activity (Mus musculus [32]) of the same molecule?
The Activity was “Active”.

And the AUC(0-t) [33]?
The AUC(0-t) was 5170 ng·h/mL.

What about the Tmax [34] of the same molecule?
The Tmax was 0.88 h.

What about the inhibition [35] of the same molecule?
The inhibition was 11%.

With `CC(C)NC(=O)c1ccc(OC(F)F)c(OCC2CC2)c1` as the molecule, how does the bioavailability [36] read?
The bioavailability was < 5%.

What about the IC50 [13] of the same molecule?
The IC50 was 31 nM.

And the IC50 [37]?
The IC50 was 47 nM.
